What is called pKa is the pH at which an ionisable group is half protonated.

Each structure is given as a SMILES string. Where two headings read alike, the source gives them in different places. Bounds are passed on as bounds.

This is an account of results in patent US11413349B2, “Green methodology to create polymeric nanocarriers containing hydrophilic low molecular-weight drugs and providing a very high drug loading and a very high prolonged release” (UNIVERSIDAD DE CHILE, priority 2019, dated 2022).

Series [1] is described as follows: In vitro drug release by dialysis. Type of series: physicochemical. The conditions noted are these: AMT/PSS n+/n−=0.60, dialysis, pH=7 and 37° C., 20 days. The procedure:
The in vitro drug release of amitriptyline (AMT) from poly (sodium 4-styrenesulfonate (PSS) was evaluated using a dialysis method. Briefly, 5 mL of AMT/PSS (n+/n−=0.60) was transferred to a dialysis membrane. The membrane was immersed in 95 mL of Milli-Q water at pH 7 and kept at 37° C. and 100 rpm in an orbital shaker. The experiment was carried out for 20 days. Aliquots (500 μL) of the solution were withdrawn at certain time intervals and replaced with an equal volume of fresh Milli-Q water. The amount of released AMT was determined by measuring the absorbance of each aliquot at 239 nm. The standard curve of AMT in water was linear (R2>0.997) in the range of concentrations between 7×10^−5 M and 7×10^−7 M (molar extinction coefficient was 12712 M^−1 cm^−1). Blank experiments dialyzing free AMT were carried out at the same conditions.
i) Dialysis: 5 mL of HALMD/PSS formulations were added in a dialysis bag (MWCO 10 kDa, ThermoScientific, USA). The dialysis system was immersed in 95 mL of Milli-Q water at pH 7 and kept at 37° C., and 100 rpm in an orbital shaker (LSI-3016R, LabTech, Daihan LabTech, Kyonggi-Do, Korea). […] The amount of released HALMD (CQ, PMZ and CPM) was determined by measuring the absorbance of each aliquot by spectrophotometry (Agilent 8453 spectrophotometer, USA).

The nature of series [2]: Diafiltration study of kinetically and thermodynamically bound drug. Type of series: physicochemical. On the procedure: Diafiltration studies were carried out to determine the fraction of amitriptyline (AMT) that was kinetically or thermodynamically bound to poly(sodium 4-styrenesulfonate (PSS) as the nanoparticle. For this study, diafiltration was been modeled as a two-compartment system, where a continuous liquid supply from the donor chamber (reservoir) is kept, maintaining a constant volume in the diafiltration cell. The unit used for diafiltration analyses consisted of a diafiltration cell, a regenerated cellulose membrane, a reservoir, a […], and a pressure source. […] The volume in the filtration cell was kept constant during the experiment, by creating a continuous flux of liquid through the diafiltration cell, from the reservoir to the collector tube. […] A total of 8 samples (approx. 5 mL) were collected and AMT concentration in each sample was determined by spectrophotometry. Subsequently, the thermodynamically bound (TB) and kinetically bound (KB) fractions were determined as follows: TB=v(km-j)/km KB=u-um The parameters v and u represent the initial fraction of AMT thermodynamically bound to the particles, thus in equilibrium, and the fraction bound to the nanocarriers whose release is kinetically controlled, respectively. […] A total of 8 samples (approx. 5 mL) were collected and the concentration of the interest species in each sample was determined by spectrophotometry. […]

For series [3] the following is noted: cited from earlier work.
The conditions of series [4]: cited from earlier work. This is another data set of the same source.

In the case of `CN(C)CCC=C1c2ccccc2CCc2ccccc21` [AMT, amitriptyline], in series [1], the “release of AMT” value is at most 16.5%. For the same compound, the “drug molecules not subjected to equilibrium with the bulk (release kinetically controlled)” value in series [2] (AMT/PSS formulations) is reported as “more than 80%”. The release in series [3] (from polyvinyl alcohol-based beads, first stage of the experiment (Ahnfelt et al)) is recorded as above 80%.
In the case of `CN(C)CCC(c1ccc(Cl)cc1)c1ccccn1` (centres unmarked) [Chlorpheniramine], in series [2] (HALMD/PSS NPs), the “drug association attributed to kinetic binding” value is “≈ 50%”. Also, the results for the pKa in series [4] and in series [4] (second value) were 4.0 and 9.4, respectively.
For the compound `COc1cccc2c1C(=O)c1c(O)c3c(c(O)c1C2=O)C[C@@](O)(C(=O)CO)C[C@@H]3O[C@H]1C[C@H](N)[C@H](O)[C@H](C)O1` [doxorubicin], the initial drug release in series [3] (poly(N-isopropylacrylamide)-based thermosensitive hydrogel (Chen et al)) was 40%.
In the case of `CN(C)CCCN1c2ccccc2CCc2ccccc21` [imipramine], in series [3] (from calcium-alginate gel beads, 1-2 h (Tomida et al)), the burst release entry is on record as “≈ 80%”.
